Literature values in PMC6522624, “Comparison of desferrioxamine and NODAGA for the gallium-68 labeling of exendin-4” (EJNMMI Radiopharmacy and Chemistry, 2019).

Columns and labels:
[1] = gallium chelation; ref Šimeček et al. [2011]; Evers et al. [1989]
Excerpt: However, their thermodynamic complex formation stability constant (log K) have been reported to be very similar, with 28.65 for DFO and 29.63 for NOTA (Šimeček et al. [2011]; Evers et al. [1989]).

[2] = in vivo
Excerpt: Insulinomas generally express highly and specifically the glucagon-like peptide-1 receptor (GLP-1R) as they are of β-cell origin (Reubi and Waser [2003]). GLP-1R is a G-protein coupled receptor of the class B receptor family (Zhang et al. [2017]). […] Dipeptidyl peptidase-4 (DPP4) is responsible for the cleavage of the peptide (Baggio and Drucker [2007]).

In the case of `CC(=O)N(O)CCCCCNC(=O)CCC(=O)N(O)CCCCCNC(=O)CCC(=O)N(O)CCCCCN` [DFO, N′-[5-(acetyl-hydroxy-amino)pentyl]-N-[5-[3-(5-aminopentyl-hydroxy-carbamoyl)propanoylamino]pentyl]-N-hydroxy-butane diamide], the “thermodynamic complex formation stability constant (log K)” value [1] is given as 28.65.
In the case of `O=C(O)CN1CCN(CC(=O)O)CCN(CC(=O)O)CC1` [NOTA], the “thermodynamic complex formation stability constant (log K)” value [1] is listed as 29.63.
For “GLP-1: endogenous peptide ligand of GLP-1R”, the biological half-life [2] is listed as “about 2 min”.
